From US9957428B2 (priority 2013, dated 2018)
Where two headings read alike, the source gives them in different places.

Experiments:
[1] = format: physicochemical
[2] = format: physicochemical; remark: listed apart in the source

SMILES	Cp ([1]; Temperature 15 ° C.)	Cp ([1]; Temperature 20 ° C.)	Cp ([1]; Temperature 25 ° C.)	Cp ([1]; Temperature 30 ° C.)	Cp ([1]; Temperature 35 ° C.)	Cp ([1]; Temperature 40 ° C.)	Kinematic Viscosity ([2]; Temp 0.0 °C) [cS]	Kinematic Viscosity ([2]; Temp 25.0 °C) [cS]	Kinematic Viscosity ([2]; Temp 30.0 °C) [cS]	Kinematic Viscosity ([2]; Temp 40.0 °C) [cS]	Kinematic Viscosity ([2]; Temp 50.0 °C) [cS]	Kinematic Viscosity ([2]; Temp 60.0 °C) [cS]	Vapor Pressure at 68° F.(20° C.) [mm Hg]
FC(=C(F)C(F)(F)F)N(C(F)(F)F)C(F)(F)C(F)(F)F [Preparatory Example 5, 1,2,3,3,3-pentafluoro-N-(1,1,2,2,2-pentafluoroethyl)-N-(trifluoromethyl)prop-1-en-1-amine]	1.18 J/(g · ° C.)	1.20 J/(g · ° C.)	1.21 J/(g · ° C.)	1.22 J/(g · ° C.)	1.23 J/(g · ° C.)	1.24 J/(g · ° C.)	–	–	–	–	–	–	–
F/C(=C(/F)C(F)(F)F)N1C(F)(F)C(F)(F)OC(F)(F)C1(F)F [Preparatory Example 2, 2,2,3,3,5,5,6,6-octafluoro-4-(1,2,3,3,3-pentafluoroprop-1-enyl)morpholine]	1.09 J/(g · ° C.)	1.10 J/(g · ° C.)	1.11 J/(g · ° C.)	1.12 J/(g · ° C.)	1.13 J/(g · ° C.)	1.14 J/(g · ° C.)	–	–	–	–	–	–	–
FC(=C(F)C(F)(F)F)N(C(F)(F)F)C(F)(F)F [Preparatory Example 1, 1,2,3,3,3-pentafluoro-N,N-bis(trifluoromethyl)prop-1-en-1-amine]	1.25 J/(g · ° C.)	1.27 J/(g · ° C.)	1.28 J/(g · ° C.)	1.30 J/(g · ° C.)	1.32 J/(g · ° C.)	1.34 J/(g · ° C.)	0.91	0.58	0.54	0.48	0.42	0.38	50.9
CCOC(F)(C(F)(F)C(F)(F)C(F)(F)F)C(F)(C(F)(F)F)C(F)(F)F (stereo not shown) [Novec 7500]	1.08 J/(g · ° C.)	1.09 J/(g · ° C.)	1.10 J/(g · ° C.)	1.11 J/(g · ° C.)	1.12 J/(g · ° C.)	1.13 J/(g · ° C.)	–	–	–	–	–	–	–
